Assay results reported in patent US9610320B2, “Surgical applications for BMP binding protein” (THE REGENTS OF THE UNIVERSITY OF CALIFORNIA, priority 2004, dated 2017).
“Also recorded” adds a separate entry of the source.

Tests used:
rhBMP-2 [1] = molecular target: T1, rhBMP-2 (Homo sapiens, UniProt P12643); assay: Surface plasmon resonance, interaction of rhBMP-2 and BBP; format: binding; conditions: BBP decyclized by prior reduction with β-mercaptoethanol
T1 sequence (P12643 283-396): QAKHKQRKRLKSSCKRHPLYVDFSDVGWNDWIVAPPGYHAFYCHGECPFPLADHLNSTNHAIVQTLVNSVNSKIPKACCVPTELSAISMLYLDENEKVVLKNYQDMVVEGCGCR
Description: Buffers and chips for the procedure were obtained from Biacore. […] This material was then attached to a CM-5 sensor chip using reagents and procedures supplied by the manufacturer. Running butter was 10 mM HEPES, pH 7.4, 150 mM NaCl, 3 mM EDTA, 0.005% Surfactant P20, The peptide was dissolved in running buffer at concentrations ranging from 1×10^−5 to 1×10^−4 M. Flow rates from 5 to 50 μl/mm and injection volumes of 20 to 100 μl were employed. The regeneration solution was […] glycine-HCl, pH 2.0.

male Swiss-Weber mice = assay: Mouse hindquarter (muscle pouch) ectopic bone formation assay, BBP; format: in vivo; conditions: for Bone Area / Bone Mineral Content: densitometry
Description: Methods: The osteogenic activity of material was tested using male Swiss-Weber mice aged 8 to 10 weeks were used (Taconic Farms, Germantown, N.Y.). Prior to the assay, the BBP was solublized and lyophilized into 2 mg of atelocollagen. The dried material was placed in a #5 gelatin capsule and sterilized by exposure to chloroform vapor. To conduct the assay, mice were anesthetized using 1% isoflurane delivered in oxygen at 2 l/min through a small animal anesthesia machine (VetEquip, Pleasanton, Calif.). Animals were affixed to a surgery board and the fur over the hindquarters shaved. The skin was cleaned with 70% ethanol and a midline incision made over the spine adjacent to the hindquarters. Blunt dissection with scissors was used to expose the quadriceps muscle on one side. A small pouch was made in the muscle using the point of scissors and the #5 capsule containing the test material was inserted into the pouch. The skin was then closed with three 11 mm Michel surgical clips and the animal returned to its cage for monitoring.
After 21 days the animals were killed and the hindquarter removed. Radiological examination of the specimens was accomplished using a small parts X-Ray cabinet (Faxitron, Wheeling, Ill.). For quantization of bone formation, bone area and the bone mineral content (BMC) of an area of interest encompassing the site of ectopic bone formation was determined using a PIXImus2 small animal densitometer (GE Lunar, Madison, Wis.). Specimens were then placed in buffered formalin and submitted for routine processing for histological examination.

rhBMP-2 [2] = molecular target: T1, rhBMP-2; assay: Residence time study: BBP and rhBMP-2 on collagen sponges in muscle pouches; format: in vivo, rodents
From the text: Methods: Labeled rhBMP-2 was mixed with BBP or vehicle and applied to collagen sponges. The sponges were implanted into muscle pouches in rodents. At specified times (1, 3 and 7 days), the implants were removed and the amount of BMP remaining determined. Four animals were used in each group.

Lewis rats [3] = assay: Rat posterolateral intertransverse process spinal fusion L4-L5 (Example 6); format: in vivo; conditions: Group 1: BBP 500 μg only, week 8
Description: All rats underwent post-operative radiography at 2, 4, 6, and 8 weeks. Manual spinal palpation was performed at 8 weeks, the time of sacrifice. Bone formation was assessed in histological sections stained with H&E.

Lewis rats [4] = assay: Rat posterolateral intertransverse process spinal fusion L4-L5 (Example 7); format: in vivo; conditions: week 8
Description: Methods: Five groups of 50 Lewis rats each underwent posterolateral intertransverse process spinal fusion at vertebrae L4-L5 with implanted: BBP (500 μg) (Group 1); BBP (1000 μg) (Group 2), collagen plus low dose BMP-2 (1 μg) (Group 3), BBP (500 μg) plus low dose BMP (1 μg) (Group 4) and BBP (1000 μg) plus low dose BMP (1 μg) (Group 5). Control groups included a negative group (decortication) and positive control group (collagen plus 3 μg BMP).
All rats underwent post-operative radiography at 2, 4, 6, and 8 weeks. Manual spinal palpation was performed at 8 weeks, after the time of sacrifice. Bone formation was assessed in histological sections stained with H&E.

Lewis rats [5] = assay: Rat posterolateral intertransverse process spinal fusion L4-L5 (Example 8); format: in vivo; conditions: for Histology, fused / Manual Palpation, fused: 8th week
Description: Methods: Posterolateral intertransverse process spinal fusion at L4-L5 was performed in five treatment groups of Lewis rats each, and collagen sponges (5×5×13 mm) were implanted into the surgical sites.
Each sponge was placed in a sterile microfuge tube and either a suspension of BBP (500 μg or 1000 μg) in water or sterile water alone was applied. The sponges were allowed to air dry in a tissue culture hood overnight and then placed at −70° C. for an hour and lyophilized overnight. The tubes (with small holes in the top to allow for lyophilization) were placed in autoclave pouches and sealed. The materials were then sterilized by exposure to chloroform vapor for at least 4 hours.
The posterolateral intertransverse process spinal fusion at L4-L5 in the rat is a well established procedure in our laboratory 13-17. Briefly, the animal was anesthetized with isofluane and the surgical site was shaved and propped with Betadyne and alcohol. A 3 cm longitudinal midline incision was made through the skin and subcutaneous tissue over L4-L5 down to the lumbodorsal fascia. Then, two separate 2 cm longitudinal paramedial incisions were made in the erector spinae muscles on both sides of L4-L5. The transverse processes of L4-L5 were exposed, cleaned of soft tissue, and decorticated with a high-speed burr. The site was irrigated with saline and the therapeutic test material was placed. The lumbodorsal fascia was closed with 4-0 Prolene (Ethicon, Somerville, N.J.). The skin was closed with 4-0 Prolene and meticulous post-operative care was provided.
These were compared to control groups. Fusion was evaluated by radiology, histology and manual palpation tests. Animals were sacrificed 8 weeks after surgery.
The results of the surgeries were assessed radiologically, histologically, and by manual palpation. Posteroanterior radiographs were obtained using a small parts X-ray cabinet (Faxitron Corp., Wheeling, Ill.) on each animal at 2, 4, 6 and 8 weeks. Radiograms were evaluated by three independent observers employing the following standardized scale: 0: no fusion; 1: incomplete fusion with bone formation present; and 2: complete fusion. The scores from the three observes were added and a total of 5 or 6 was regarded as “fused”. Manual palpation of the spine was performed at the time of sacrifice at 8 weeks. To simulate the gold standard for determining fusion in humans, exploration and manual palpation of the fusion mass were performed after death. The level fused was manually palpated with Adson forceps and compared with the adjacent nonfused levels. Each specimen was graded as fused or non-fused by three independent observers. The spine was designated as “not fused” if any of the three observers graded the spine as not fused. After manual palpation, the specimens were decalcified using standard 10% decalcifying solution HCl (Cal-Ex, Fisher Scientific, Fairlawn, N.J.), washed with running tap water, then transferred to 75% ethanol. Sagittal sections were cut carefully at the level of the transverse process. The specimens were imbedded in paraffin and sections of each specimen obtained. These sections were stained with hematoxylin and eosin. They were evaluated by an independent observer as fused and not fused.
The proportions of subjects in each group judged to be “fused” were compared in sequential two group comparisons with Fisher's exact test using SPSS software. A p score of less than or equal to 0.05 was set for statistical significance.

[6] = BBP 50 μg implanted with 5 μg rhBMP-2, 21 days
[7] = BBP 500 μg implanted with 5 μg rhBMP-2, 21 days

CSCC[C@@H]1NC(=O)[C@H](CCCNC(=N)N)NC(=O)[C@H](C(C)C)NC(=O)[C@H]([C@@H](C)O)NC(=O)[C@H](CO)NC(=O)[C@H](CCCNC(=N)N)NC(=O)[C@@H](N)CSSC[C@@H](C(=O)O)NC(=O)[C@H](CCCNC(=N)N)NC(=O)[C@H](C(C)C)NC(=O)[C@H](Cc2c[nH]c3ccccc23)NC(=O)[C@H](C(C)C)NC(=O)[C@H](CC(N)=O)NC(=O)[C@H](CCC(N)=O)NC(=O)[C@H](C(C)C)NC(=O)[C@H](CCC(N)=O)NC(=O)[C@H](CCC(=O)O)NC(=O)[C@H](C)NC(=O)[C@H](CO)NC1=O [BBP]
binding to rhBMP-2 (rhBMP-2 [1]): no significant binding | calcification after implantation of BBP alone (male Swiss-Weber mice; 500 μg BBP in atelocollagen, mouse muscle, 21 days, radiogram/histology): induced calcification; also recorded: dystrophic calcification primarily associated with intramuscular adipose tissue; also recorded: ectopic dystrophic calcification formation | amount of ectopic bone formed versus rhBMP-2 alone (male Swiss-Weber mice; 500 μg BBP with 5 μg rhBMP-2, densitometry): consistently greater | Bone Area (male Swiss-Weber mice; [6]): 0.159 ± 0.0606 cm^2 | Bone Mineral Content (male Swiss-Weber mice; [6]): 0.00388 ± 0.0017 g | Bone Area (male Swiss-Weber mice; [7]): 0.226 ± 0.0270 cm^2 | Bone Mineral Content (male Swiss-Weber mice; [7]): 0.00528 ± 0.00068 g | increase of rhBMP-2 retention (factor) (rhBMP-2 [2]; collagen sponges in muscle pouches, 1, 3 and 7 days, versus vehicle): about two | retention of rhBMP-2 (fold) (rhBMP-2 [2]; for up to seven days in vitro and in vivo): two | Fusion Rates (Lewis rats [3]): 14% | fusion by manual palpation (Lewis rats [4]; Group 1: BBP 500 μg only): 0% | fusion by manual palpation (Lewis rats [4]; Group 2: BBP 1000 μg only): 0% | fusion with BBP alone (Lewis rats [5]; 500 μg or 1000 μg BBP alone, any time point): none of the animals in low and high dose BBP groups developed fusion at any time points; also recorded: did not provide fusion | radiological examination, fused, Week 2nd (Lewis rats [5]; high dose BBP only (1000 μg)): 0% | radiological examination, fused, Week 4th (Lewis rats [5]; high dose BBP only (1000 μg)): 0% | radiological examination, fused, Week 6th (Lewis rats [5]; high dose BBP only (1000 μg)): 0% | radiological examination, fused, Week 8th (Lewis rats [5]; high dose BBP only (1000 μg)): 0% | Histology, fused (Lewis rats [5]; high dose BBP only (1000 μg)): 0% | Manual Palpation, fused (Lewis rats [5]; high dose BBP only (1000 μg)): 0% | radiological examination, fused, Week 2nd (Lewis rats [5]; low dose BBP only (500 μg)): 0% | radiological examination, fused, Week 4th (Lewis rats [5]; low dose BBP only (500 μg)): 0% | radiological examination, fused, Week 6th (Lewis rats [5]; low dose BBP only (500 μg)): 0% | radiological examination, fused, Week 8th (Lewis rats [5]; low dose BBP only (500 μg)): 0% | Histology, fused (Lewis rats [5]; low dose BBP only (500 μg)): 0% | Manual Palpation, fused (Lewis rats [5]; low dose BBP only (500 μg)): 0%
